Each block holds one molecule with its values, some of them ahead of it.
Experiments:
[1] = tested on: BRAFV600E mutant melanoma cell line (04.07); test: sensitivity of screening cell line to ERK inhibitor; type: cell-based, human; conditions: not all cells are killed even at high concentration
Procedure: The insertional mutagenesis screen was performed as described previously (Lu et al. Proc Natl Acad Sci U S A. (2009) 22;106(38):16339-44). Briefly, an intermediate sensitive melanoma cell line of low passage (Me104.07) was infected separately with the three different VBIM constructs (SD1-3). Two days after infection cells were exposed to 1 μM […] for three weeks till single colonies had formed. These were picked and separately cultured. For identification of insertions Splinkerette-PCR was used according to the published protocol and Sanger sequencing applied on amplified products.
To identify proteins conferring resistance to MAPK pathway inhibition by the recently available ERK inhibitor 5CH772984, we performed a lentiviral insertional mutagenesis screen using the VBIM system. Carrying a GFP-sequence and a strong CMV promoter, the virus integrates in the genome, resulting in an activation of downstream sequences that leads to overexpression of a FLAG-tagged protein. Due to […] excision the insertion can be excised by addition of 4-Hydroxytamoxifen (4-OHT). […] We infected this cell line with the three versions of the insertional mutagenesis vector (SD1-3). After three weeks of culturing in the presence of 1 μM SCH772984, we were able to pick drug-resistant clones and individually expanded them. […]

[2] = tested on: BRAF and BRAF/MEK inhibitor-resistant cells; conditions: Morris et al. 2013; cited from earlier work
[3] = tested on: MITF^endo^_^hi and MITF^endo^_^lo cell lines; test: dose response curve (short-term viability assay); type: cell-based, human; conditions: four MITF^endo^_^lo versus four MITF^endo^_^hi cell lines
Procedure: Cell line sources: Melanoma cell lines and HEK293T were cultured in DMEM/9% FBS (Sigma), 2 mM glutamine, 100 U/mL penicillin and 0.1 mg/mL streptomycin (all Gibco) under standard conditions. […] For dose response curve and colony formation assay cells were plated in a line-specific manner. Equal concentration of inhibitors was added one day after set up. For short-term viability assay (dose response curve) cells were plated in a 96-well format and drugs diluted with the HP D300 Digital Dispenser (Tecan). After three to five days incubation old medium was replaced by a dilution of CellTiter Blue reagent or CellTiter-Glo Luminescent Cell Viability Assay (Promega, Madison, Wiss.) in medium. Two hours later luminescence was measured by the infinite M200 microplate reader (Tecan, Giessen, Germany).
(§2) We then determined the spectrum of drug sensitivity among the MITF^endo^_^lo and MITF^endo^_^hi cells.

[4] = tested on: receptor tyrosine kinases (RTKs); test: phospho-RTK array; type: cell-based, human; conditions: 5 μM, two days
Procedure: Phospho-RTK assay was performed using the human Phospho-RTK Array from RD Systems (Minneapolis, USA). All steps were performed according to the manufactures protocol.
Encouraged by these findings, we compared the phosphorylation status of RTKs in one MITF^endo^_^lo and one MITF^endo^_^lo cell line.

MITF = MITF expression during acquisition of resistance; type: cell-based, human; conditions: short-term exposure, M229 and M238 MITF^acq^_^loss melanoma cell lines
Procedure: RNA was isolated using Trizol (Ambion), following standard protocol. Reverse transcription was performed using a kit from Invitrogen. Primers were designed using Primer Express software. QRT-PCR was performed with SYBR green master mix (Applied Biosystems) on a StepOnePlus Real-Time PCR system (Applied Biosystems, Warrington, UK). RNA levels were normalized against beta-actin or RPL13. Following primers were used: To study the dynamics of MITF downregulation as a function of the acquisition of a resistant phenotype, two independent MITF^acq^_^loss melanoma cell lines (M229 and […]; {Shi:2014fm}) were permanently exposed to 1 μM vemurafenib and monitored in time.

[5] = tested on: MITF^endo^_^lo and MITF^endo^_^hi BRAF mutant melanoma cells; test: cell proliferation assay and PARP cleavage; type: cell-based, human; conditions: 5 μM, six days; MITF^endo^_^lo versus MITF^endo^_^hi cells
Procedure: FIG. 7: BRAFV600E mutant melanoma cells were plated in low density and treated with 5 μM PLX4270 for 6 days or left untreated and stained with crystal violet (left panel).
Cell line sources: Melanoma cell lines and HEK293T were cultured in DMEM/9% FBS (Sigma), 2 mM glutamine, 100 U/mL penicillin and 0.1 mg/mL streptomycin (all Gibco) under standard conditions. […] For dose response curve and colony formation assay cells were plated in a line-specific manner. Equal concentration of inhibitors was added one day after set up. For short-term viability assay (dose response curve) cells were plated in a 96-well format and drugs diluted with the HP D300 Digital Dispenser (Tecan). After three to five days incubation old medium was replaced by a dilution of CellTiter Blue reagent or CellTiter-Glo Luminescent Cell Viability Assay (Promega, Madison, Wiss.) in medium. Two hours later luminescence was measured by the infinite M200 microplate reader (Tecan, Giessen, Germany). Long-term viability assays were performed in 6-well or 12-well format. Inhibitors solutions were replaced every two to three days and plates stained with crystal violet after six to nine days of treatment (as indicated). For immunoblot analysis cells were treated on 10 cm dishes and snap-frozen after harvesting.
as §2

ERK phosphorylation = test: immunoblot of ERK phosphorylation; type: cell-based, human; conditions: 5 μM; irrespective of MITF status
Procedure: For immunoblot analysis cells were treated on 10 cm dishes and snap-frozen after harvesting.
Cells were lysed in RIPA buffer and protein concentration measured with Bio-Rad protein assay. Immunoblots were performed according to standard protocols on 4 to 12% bis-Tris precast or 3-8% tris-acetate gels (NuPage). […] MAP kinase p44/42 thy202/Tyr204 (9106) and PDGFRbeta (31695) from Cell Signaling.

[6] = tested on: AXL-expressing PLX4270-resistant melanoma cells; test: long-term viability assay, crystal violet staining; type: cell-based, human; conditions: 0.3 μM AXL inhibitor, nine days, in two out of three resistant cell lines
Procedure: FIG. 12: AXL-expressing PLX4270-resistant melanoma cells were exposed to 0.3 μM AXL inhibitor for nine days and the remaining cells stained with crystal violet.
(§1) Cell line sources: Melanoma cell lines and HEK293T were cultured in DMEM/9% FBS (Sigma), 2 mM glutamine, 100 U/mL penicillin and 0.1 mg/mL streptomycin (all Gibco) under standard conditions. HEK293T cells were used for virus production for MITF-overexpression and shRNAs. Briefly HEK293T cells were transfected with the plasmid of interest and the helper plasmids (pMDLglpRRE, pHCMV-G, and pRSVrev). Viral supernatant was either fresh frozen or subsequently used for infection. Infected melanoma cells were positively selected with puromycin (Sigma). For dose response curve and colony formation assay cells were plated in a line-specific manner. Equal concentration of inhibitors was added one day after set up. For short-term viability assay (dose response curve) cells were plated in a 96-well format and drugs diluted with the HP D300 Digital Dispenser (Tecan). […] Two hours later luminescence was measured by the infinite M200 microplate reader (Tecan, Giessen, Germany). […]
Next, we determined the expression pattern of these RTKs in acquired resistance, particularly in PLX4720-sensitive cells and their resistant counterparts. […]

[7] = tested on: PLX4720-resistant MITF^acq^_^gain cells; test: long-term viability assay, crystal violet staining; type: cell-based, human; conditions: crystal violet after 6 days
Procedure: FIG. 5: Loss of MITF confers cross-resistance and increases invasiveness of resistant cells. Two PLX4270-resistant cells lines (Me1888 and SkMe128) and their treatment-naïve counterparts were treated with either ERKi, MEKi, the BRAFinhibitor Dabrafenib or a combination of the latter and stained with crystal violet after 6 days of treatment.
as §1

Compound: O=C(Nc1ccc2[nH]nc(-c3ccncc3)c2c1)[C@@H]1CCN(CC(=O)N2CCN(c3ccc(-c4ncccn4)cc3)CC2)C1 [SCH772984]
sensitivity to the inhibitor [1]: intermediately sensitive
proliferation [2]: effectively block proliferation

Compound: CC(=O)Nc1cccc(-n2c(=O)n(C3CC3)c(=O)c3c(Nc4ccc(I)cc4F)n(C)c(=O)c(C)c32)c1 [MEKi]
increase in resistance, as measured from the IC50 values [3]: up to 1000 fold

activation of RTKs ([4]; MITF^endo^_^hi cells): only a minor activation
activation of RTKs ([4]; MITF^endo^_^lo cells): further increased
Compound: CCCS(=O)(=O)Nc1ccc(F)c(C(=O)c2c[nH]c3ncc(Cl)cc23)c1F [PLX4720]
MITF expression (MITF): sharply dropped
survival of cells upon exposure [5]: clear survival benefit
ERK phosphorylation (ERK phosphorylation): diminished

Compound: Nc1nc(Nc2ccc3c(c2)CCC(N2CCCC2)CC3)nn1-c1cc2c(nn1)-c1ccccc1CCC2 (stereo not shown) [R428]
proliferation/viability upon drug treatment [6]: strong decrease in proliferation/viability

Compound: CC(C)(C)c1nc(-c2cccc(NS(=O)(=O)c3c(F)cccc3F)c2F)c(-c2ccnc(N)n2)s1 [Dabrafenib]
sensitivity in long-term experiment [7]: resistant
